For one experiment, the target named is ALK1 (Homo sapiens, UniProt P37023). Description: TR-FRET enzymatic ALK kinase assay, ALK1. (In general: In TR-FRET formats the signal depends on donor and acceptor labels being close together.)
Experiment [1] concerns the target T1, ALK2 (Mus musculus, UniProt P37172).
T1 construct: The C2C12 cell line was selected for the measurement of ALK2 activity using BMP6 as the agonist; host or cells: C2C12
T1 sequence (P37172 21-509): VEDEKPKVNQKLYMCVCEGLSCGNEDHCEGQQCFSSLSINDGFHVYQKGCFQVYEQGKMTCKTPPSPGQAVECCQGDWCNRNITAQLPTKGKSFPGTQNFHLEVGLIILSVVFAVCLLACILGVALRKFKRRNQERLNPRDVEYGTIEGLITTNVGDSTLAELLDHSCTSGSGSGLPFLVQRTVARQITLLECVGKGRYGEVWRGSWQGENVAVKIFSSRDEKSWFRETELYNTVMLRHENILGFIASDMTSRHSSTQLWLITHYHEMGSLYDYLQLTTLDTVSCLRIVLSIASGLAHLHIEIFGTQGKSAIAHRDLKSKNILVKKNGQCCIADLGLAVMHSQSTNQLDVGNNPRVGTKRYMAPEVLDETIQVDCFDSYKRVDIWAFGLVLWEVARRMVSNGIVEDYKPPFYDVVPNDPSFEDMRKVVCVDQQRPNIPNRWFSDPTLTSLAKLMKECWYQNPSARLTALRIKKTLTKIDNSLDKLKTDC
In words: HTRF pSMAD1 cell-based ALK2 assay (C2C12 cells, BMP6 as agonist). The note with it: cell-based assay, BMP6; read-out: Cell IC50 BMP6. Summed up:
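Cells pre-starved, plated in 0.1% FBS medium for 4 h, compound added for 30 min, then stimulated 30 min with BMP9 (BAOEC) or BMP6 (C2C12). Phospho-SMAD1 measured by HTRF after overnight room-temperature detection incubation.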

Experiment [2] can be described thus: Cell-based assay, TGFb1 (Cell IC50).
Experiment [3] has as its target T2, ALK2 (Homo sapiens, UniProt Q04771).
T2 sequence (Q04771 21-509): T1 sequence (P37172 21-509) with V1M, Q10P, I121L, E162D, S310P
In words: TR-FRET enzymatic ALK kinase assay, ALK2.
Description: (§1) Briefly, the ALKs enzymatic assay was initiated by dispense 2.5 μl enzyme in 1× kinase reaction buffer. The assay plate was then added with compounds followed by incubation at room temperature for 10 minutes. Then 2.5 μl/well substrate was added.

In the next experiment the target is T3, ALK4 (Homo sapiens, UniProt P36896).
T3 sequence (P36896 24-505): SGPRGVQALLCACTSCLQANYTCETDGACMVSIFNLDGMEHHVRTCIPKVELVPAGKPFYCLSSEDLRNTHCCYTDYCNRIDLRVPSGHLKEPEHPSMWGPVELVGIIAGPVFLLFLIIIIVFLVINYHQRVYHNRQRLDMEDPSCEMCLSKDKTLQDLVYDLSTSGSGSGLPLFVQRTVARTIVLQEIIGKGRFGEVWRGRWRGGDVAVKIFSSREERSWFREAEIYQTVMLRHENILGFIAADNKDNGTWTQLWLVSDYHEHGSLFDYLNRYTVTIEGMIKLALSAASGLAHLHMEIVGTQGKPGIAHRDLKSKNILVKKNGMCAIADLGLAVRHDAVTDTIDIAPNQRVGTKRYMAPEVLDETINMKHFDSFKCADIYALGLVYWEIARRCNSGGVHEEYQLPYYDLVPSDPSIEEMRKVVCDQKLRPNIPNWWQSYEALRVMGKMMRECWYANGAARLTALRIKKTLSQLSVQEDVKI
Description: TR-FRET enzymatic ALK kinase assay, ALK4.

The next experiment concerns the target ALK6 (Homo sapiens, UniProt O00238). In words: TR-FRET enzymatic ALK kinase assay, ALK6.
The next experiment addresses T4, ALK5 (Homo sapiens, UniProt P36897).
T4 sequence (P36897 34-503): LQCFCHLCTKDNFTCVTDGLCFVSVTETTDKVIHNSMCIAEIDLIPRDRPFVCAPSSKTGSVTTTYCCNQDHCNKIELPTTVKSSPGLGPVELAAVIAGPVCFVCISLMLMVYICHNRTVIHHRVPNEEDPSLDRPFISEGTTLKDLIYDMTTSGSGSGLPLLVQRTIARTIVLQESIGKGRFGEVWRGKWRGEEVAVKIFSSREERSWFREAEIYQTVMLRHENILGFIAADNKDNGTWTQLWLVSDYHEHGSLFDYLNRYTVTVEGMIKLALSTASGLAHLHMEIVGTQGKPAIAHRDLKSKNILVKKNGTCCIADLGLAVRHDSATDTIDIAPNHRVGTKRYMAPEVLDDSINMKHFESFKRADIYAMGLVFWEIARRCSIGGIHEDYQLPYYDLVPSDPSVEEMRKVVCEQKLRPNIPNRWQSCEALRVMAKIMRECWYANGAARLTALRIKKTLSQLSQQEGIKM
Description: TR-FRET enzymatic ALK kinase assay, ALK5.

For a further experiment, the target named is ALK3 (Homo sapiens, UniProt P36894). In words: TR-FRET enzymatic ALK kinase assay, ALK3.

IC50 data for 11 compounds are collected here from patent publication US10513521B2, “Compositions and methods for inhibiting BMP” (The Brigham and Women's Hospital, Inc., priority 2014, dated 2019).

Molecules are shown by their SMILES. Numbering of substitutions follows the chain as printed.

ALK3, sequence (P36894 24-532): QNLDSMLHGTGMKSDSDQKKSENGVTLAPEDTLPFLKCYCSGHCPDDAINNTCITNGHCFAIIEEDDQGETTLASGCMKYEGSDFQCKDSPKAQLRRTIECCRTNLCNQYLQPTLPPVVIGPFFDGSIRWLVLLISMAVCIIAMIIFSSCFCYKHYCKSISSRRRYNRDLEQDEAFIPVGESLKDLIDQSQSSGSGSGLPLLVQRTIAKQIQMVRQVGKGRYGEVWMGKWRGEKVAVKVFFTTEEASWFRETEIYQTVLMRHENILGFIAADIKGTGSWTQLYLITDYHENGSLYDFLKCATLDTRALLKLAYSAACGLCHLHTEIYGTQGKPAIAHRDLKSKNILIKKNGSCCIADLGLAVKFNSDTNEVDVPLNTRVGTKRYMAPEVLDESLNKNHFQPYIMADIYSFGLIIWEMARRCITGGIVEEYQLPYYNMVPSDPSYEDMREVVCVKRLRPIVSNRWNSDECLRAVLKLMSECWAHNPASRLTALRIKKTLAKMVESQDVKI
ALK6, sequence (O00238 14-502): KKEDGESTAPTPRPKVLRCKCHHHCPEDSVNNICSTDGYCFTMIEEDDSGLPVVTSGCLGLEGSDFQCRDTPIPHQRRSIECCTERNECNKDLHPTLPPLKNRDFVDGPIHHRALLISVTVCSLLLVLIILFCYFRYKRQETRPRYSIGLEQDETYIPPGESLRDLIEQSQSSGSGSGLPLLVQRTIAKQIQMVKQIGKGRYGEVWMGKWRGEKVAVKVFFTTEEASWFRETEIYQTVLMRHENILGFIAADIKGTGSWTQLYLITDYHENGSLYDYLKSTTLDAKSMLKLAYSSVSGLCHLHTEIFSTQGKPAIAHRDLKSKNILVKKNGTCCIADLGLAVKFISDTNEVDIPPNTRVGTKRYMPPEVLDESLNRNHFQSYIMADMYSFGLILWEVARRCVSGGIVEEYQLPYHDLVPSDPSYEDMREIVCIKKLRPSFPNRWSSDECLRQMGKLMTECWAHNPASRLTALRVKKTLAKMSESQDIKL
ALK1, sequence (P37023 22-503): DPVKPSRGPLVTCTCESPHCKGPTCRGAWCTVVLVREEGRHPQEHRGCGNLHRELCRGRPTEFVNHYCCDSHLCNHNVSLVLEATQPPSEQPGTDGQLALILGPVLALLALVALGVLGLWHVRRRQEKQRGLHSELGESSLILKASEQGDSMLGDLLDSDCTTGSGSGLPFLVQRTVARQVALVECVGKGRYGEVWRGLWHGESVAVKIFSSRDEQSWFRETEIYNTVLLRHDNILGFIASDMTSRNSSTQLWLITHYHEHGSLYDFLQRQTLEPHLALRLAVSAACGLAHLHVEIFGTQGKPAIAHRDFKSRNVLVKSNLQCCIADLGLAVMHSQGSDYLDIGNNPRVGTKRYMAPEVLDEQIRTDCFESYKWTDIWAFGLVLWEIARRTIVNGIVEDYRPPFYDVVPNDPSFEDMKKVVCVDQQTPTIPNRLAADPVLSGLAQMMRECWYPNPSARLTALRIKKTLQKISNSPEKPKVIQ
Description for ALK1: as §1
Description for ALK3: as §1
Description for ALK4: as §1
Description for ALK5: Six ALK kinase enzyme assays were developed for determination of compound activities on ALK1, ALK2, ALK3, ALK4, ALK5 and ALK6.
as §1
Description for ALK6: as §1

On to `NC(=O)c1ccc(-c2cnn3cc(-c4ccc(N5CCNCC5)cc4)cnc23)c2ccccc12` [Compound 2, 4-(6-(4-(piperazin-1-yl)phenyl)pyrazolo[1,5-a]pyrimidin-3-yl)-1-naphthamide], for which the IC50 stood at 18 nM against ALK1; 28 nM at ALK2 [1]; 331 nM in experiment [2]; 4.5 nM at ALK2 [3]; 11200 nM at ALK4; 2070 nM against ALK6. The IC50 at ALK5 was found to be 56.6 µM; against ALK3, 147 nM.

On to `NC(=O)c1cccc2c(-c3cnn4cc(-c5ccc(N6CCNCC6)cc5)cnc34)cccc12` [Compound 6, 5-(6-(4-(piperazin-1-yl)phenyl)pyrazolo[1,5-a]pyrimidin-3-yl)-1-naphthamide], for which the IC50 turned out to be 31 nM on ALK1; 21 nM at ALK2 [1]; 764 nM in experiment [2]; 7 nM against ALK2 [3]; 2690 nM against ALK4; 105 nM at ALK6. Moreover, the values for the IC50 at ALK5 and against ALK3 were 11.2 µM and 30 nM, respectively.

Consider `C[C@@H]1CNC[C@H](C)N1c1ccc(-c2cnc3c(-c4ccc(C(N)=O)c5ccccc45)cnn3c2)cc1` [Compound 9, 4-(6-(4-((2S,6R)-2,6-dimethylpiperazin-1-yl)phenyl)pyrazolo[1,5-a]pyrimidin-3-yl)-1-naphthamide], for which the IC50 was determined as 4 nM on ALK1; 11 nM on ALK2 [1]; 200 nM in experiment [2]; 6 nM at ALK2 [3]; 920 nM on ALK4; 225 nM on ALK6. The IC50 amounted to 5.43 µM on ALK5 and 42 nM against ALK3.

Consider `NC(=O)c1ccc(-c2cnn3cc(-c4ccc(N5C[C@@H]6C[C@H]5CN6)cc4)cnc23)c2ccccc12` [Compound 11, 4-(6-(4-((1 S,4S)-2,5-diazabicyclo[2.2.1]heptan-2-yl)phenyl)pyrazolo[1,5-a]pyrimidin-3-yl)-1-naphthamide], for which the IC50 at ALK1 was 30 nM; on ALK2 [1], 55 nM; in experiment [2], 645 nM; against ALK2 [3], 7 nM; against ALK4, 2990 nM; against ALK6 it was 2060 nM. For the same compound, the half-inhibitory concentration (IC50) on ALK5 came to 7.02 µM; against ALK3 it was 112 nM.

For the compound `NC(=O)c1cccc2c(-c3cnn4cc(-c5ccc(N6C[C@@H]7C[C@H]6CN7)cc5)cnc34)cccc12` [Compound 12, 5-(6-(4-((1S,4S)-2,5-diazabicyclo[2.2.1]heptan-2-yl)phenyl)pyrazolo[1,5-a]pyrimidin-3-yl)-1-naphthamide], the IC50 against ALK1 was 34 nM; at ALK2 [1] it was 68 nM; in experiment [2], 1240 nM; at ALK2 [3], 8.3 nM; against ALK4 it was 2810 nM; against ALK6, 260 nM. Also, the IC50 on ALK5 was determined as 21.5 µM; against ALK3, 59 nM.

Take `CC(C)(CN1CCCCC1)Oc1ccc(-c2cnc3c(-c4ccc(C(N)=O)c5ccccc45)cnn3c2)cc1` [Compound 17, 4-(6-(4-((2-methyl-1-(piperidin-1-yl)propan-2-yl)oxy)phenyl)pyrazolo[1,5-a]pyrimidin-3-yl)-1-naphthamide]: the IC50 was 11 nM against ALK1; 16 nM at ALK2 [1]; 434 nM in experiment [2]; 5 nM at ALK2 [3]; 2020 nM against ALK4; 1240 nM at ALK6. Besides, the 50% inhibitory concentration (IC50) on ALK5 was determined as 8.58 µM; at ALK3 it was 62 nM.

Regarding `C[C@@H]1CNC[C@H](C)N1c1ccc(-c2cnc3c(-c4ccc(C#N)c5ccccc45)cnn3c2)cc1` [Compound 19, 4-(6-(4-((2R,6S)-2,6-dimethylpiperazin-1-yl)phenyl)pyrazolo[1,5-a]pyrimidin-3-yl)-1-naphthonitrile], the IC50 turned out to be 574 nM on ALK1; 44 nM at ALK2 [1]; 4440 nM in experiment [2]; 94 nM against ALK2 [3]; 4780 nM on ALK4; 9840 nM at ALK6. Besides, the values for the IC50 against ALK5 and against ALK3 were 151 µM and 1100 nM, respectively.

On to `C[C@@H]1CNC[C@H](C)N1c1ccc(-c2cnc3c(-c4cccc5c(CO)cccc45)cnn3c2)cc1` [Compound 20, (5-(6-(4-((2R,6S)-2,6-dimethylpiperazin-1-yl)phenyl)pyrazolo[1,5-a]pyrimidin-3-yl)naphthalen-1-yl)methanol], for which the IC50 against ALK1 came to 22 nM; on ALK2 [1], 14 nM; in experiment [2], 1550 nM; against ALK2 [3], 16 nM; on ALK4, 3960 nM; at ALK6, 3710 nM. Also, the IC50 on ALK5 was 21.7 µM; against ALK3 it was 240 nM.

With `CC(=O)c1cccc2c(-c3cnn4cc(-c5ccc(N6[C@H](C)CNC[C@@H]6C)cc5)cnc34)cccc12` [Compound 24, 1-(5-(6-(4-((2R,6S)-2,6-dimethylpiperazin-1-yl)phenyl)pyrazolo[1,5-a]pyrimidin-3-yl)naphthalen-1-yl)ethanone], the IC50 against ALK1 is 107 nM; on ALK2 [1], 333 nM; in experiment [2], 580 nM; against ALK2 [3], 30 nM; on ALK4, 1450 nM; against ALK6, 300 nM. The IC50 was determined as 26.9 µM against ALK5 and 59 nM on ALK3.

In the case of `C[C@@H]1CNC[C@H](C)N1c1ccc(-c2cnc3c(-c4cccc5c(C#N)cccc45)cnn3c2)cc1` [Compound 25, 5-(6-(4-((2R,6S)-2,6-dimethylpiperazin-1-yl)phenyl)pyrazolo[1,5-a]pyrimidin-3-yl)-1-naphthonitrile], the IC50 against ALK1 was determined as 75 nM; at ALK2 [1], 114 nM; in experiment [2], 2580 nM; against ALK2 [3], 27 nM; at ALK4, 1210 nM; at ALK6, 568 nM. Also, the values for the IC50 against ALK5 and on ALK3 were 5.34 µM and 123 nM, respectively.

Regarding `C[C@@H]1CNC[C@H](C)N1c1ccc(-c2cnc3c(-c4ccc(-c5nn[nH]n5)c5ccccc45)cnn3c2)cc1` [Compound 26, 3-(4-(1H-tetrazol-5-yl)naphthalen-1-yl)-6-(4-((2R,6S)-2,6-dimethylpiperazin-1-yl)phenyl)pyrazolo[1,5-a]pyrimidine], the IC50 against ALK1 came to 48 nM; at ALK2 [1] it was 2990 nM; in experiment [2], 1860 nM; on ALK2 [3], 13 nM; on ALK4, 3040 nM; on ALK6 it was 1910 nM. The figures for the IC50 against ALK5 and at ALK3 were 6.11 µM and 391 nM, respectively.

The term IC50 denotes the midpoint of a concentration-inhibition curve.
